Data published in patent US10300029B2, “Organ protection solutions and method of use” (VIRGINIA COMMONWEALTH UNIVERSITY, priority 2011, dated 2019).

Legend:
[1] = tested on: juvenile swine in hemorrhagic shock
Source text: Saline control • b. […] Results

rodent capillaries = tested on: rodent capillaries; set-up: species or system rats; conditions: rat, in vivo
Protocol: FIG. 10A-D. A) Diagram showing the shock, resuscitation, and recovery protocol used for these studies. The low volume resuscitation (LVR) time is the time from the start of the low volume resuscitation (after the lactate during hemorrhagic shock reaches 9-10 mM) until the time after the LVR infusion when the lactate rises back up to 9-10 mM again. This immediately precedes full resuscitation. The LVR time is a measure of the tolerance to the low volume state and is a function of the microcirculatory effectiveness since it is dependent on the rate of change of the plasma lactate. […] The numbers on the x-axis are the corresponding lactate concentrations in the plasma at the end of the LVR period. Most are close to 10 mM because that was the definition of the end of the LVR period. […] D) The oncotic reflection coefficient (σd) for PEG-20k was measured in six rats to determine the impermeant and the oncotic effects of this molecule in both the mesenteric vascular bed and the thoracic bed. FITC-labeled PEG-20k was used as a tracer molecule and the reflection coefficient was determined by measuring the lymph (L) to plasma (P) concentrations of FITC-PEG after an IV injection of the tracer under conditions of high lymph flow induced by volume loading with I.V. saline infusions (0.25 ml/min). […] FITC-labelled PEG-20k was measured by excitation-emission spectrofluorometry. […]

shocked rodents = experiment: Hemorrhagic shock model, low volume resuscitation with gluconate (Example 4); format: in vivo
Protocol: Gluconate was administered in the organ protectant solution (e.g., a low volume resuscitation (LVR) solution with cell impermeants according to the present invention) in order to achieve a theoretical gluconate concentration of about 60 mM in the extracellular fluid compartment (subsequent experiments have shown that about 100 mM is probably optimal). The idea of low volume resuscitation is to give the shocked patient small volumes of intravenous fluids to prolong the time on the field to allow for rescue and transport to a forward hospital where more definitive resuscitation can occur (due to fewer resource limitations). The purpose of the addition of the cell impermeants to the LVR solution (usually saline) was to increase this “down time” further, effectively increasing the tolerance to the low flow state and making it more likely that the patient can survive the wait to the hospital. Essentially, the objective is to increase the “Golden Hour”.
In shock experiments, the time that the control animals could remain in the low volume state (after LVR administration) was 64 minutes. […] This means that these subjects were able to stay safely in the low volume state for much longer periods. In practical terms, they can wait longer for transport and full resuscitation, yet presumably have a higher chance of survival.

[2] = 24 hours after shock and resuscitation, vs controls

Protocol for normal pig blood: The (A) PT-INR and (B) aPTT effects were determined in both normal pig blood after ex-vivo mixing with PEG-20k LVR solutions (10% dilution) or with a saline control, also at a 10% solution, and after the end of the LVR period in pigs given PEG-20k based LVR solutions.
Juvenile swine (35-40 kn) were anesthetized with Ketamine/Xylazine, and propofol induction followed by isofluorane inhalation anesthesia maintenance (1-2%). A swan-Ganz catheter was introduced into the pulmonary artery via a cut down of the right jugular vein for the continuous measurement of cardiac output, pulmonary artery pressures, and sVO2 (mixed venous O2 saturation) by an optical sensor on the PA catheter. Blood pressure and arterial blood gases were measured by a line in the femoral artery. A line in the carotid artery and contralateral jugular vein was used for bleeding and resuscitation, respectively. […]
Finally, coagulation was determined in both normal pig blood after ex-vivo mixing with PEG-20k LVR solutions (10% dilution) or with a saline control, also at a 10% solution, and after the end of the LVR period in pigs given PEG-20k based LVR solutions.

| Compound | coagulation (PT-INR, aPTT), in-vivo [1] | capillary oncotic reflection coefficient (rodent capillaries) | coagulation (PT-INR, aPTT), ex-vivo mixing test (normal pig blood) | albumin (shocked rodents; [2]) | liver enzymes (shocked rodents; [2]) | metabolic acidosis (shocked rodents; [2]) | LVR time (shocked rodents; gluconate added to LVR solution, theoretical about 60 mM in extracellular fluid) |
| --- | --- | --- | --- | --- | --- | --- | --- |
| polyethylene glycol 20,000 [PEG-20k] | not altered | about 0.65 | not altered | – | – | – | – |
| O=C(O)[C@H](O)[C@@H](O)[C@H](O)[C@H](O)CO [gluconate] | – | – | – | higher | lower | less | over 106 minutes |
